# From US9956199B2, “Chromane-like cyclic prenylflavonoids for the medical intervention in neurological disorders” (priority 2011, dated 2018)
# “Also recorded” adds a separate entry of the source.
# What was measured:
# [1] = system: mouse embryonic day 16 forebrain (MEF) cells; test: normalized renilla luciferase activity (cell survival / relative cytotoxicity); assay type: cell-based; conditions: three days, FIG. 1D
# Protocol: Luciferase assays were performed using a noncommercial dual luciferase enzyme assay system (Dyer et al., 2000, Anal Biochem). In this system, a co-transfection with pDCX-Luci and a control vector driving Renilla-luciferase under the CMV promoter was performed. The two different luciferases have different specific substrates and, therefore, the DCX regulatory region driven firefly luciferase activity can be distinguished from CMV driven Renilla-luciferase. For analysis, the firefly luciferase activity was normalized against the CMV driven Renilla-luciferase. […]
# Elmer, Calif., USA) according to the manufacturer's instructions. Then, 100 μl of freshly prepared Renilla assay solution consisting of 1.1 M NaCl (VWR, Vienna, Austria), 2.2 mM Na2EDTA, 0.22 M KH2PO4 pH 5.1 (Merck, Darmstadt, Germany), 0.44 mg/mL BSA (Biomol, Hamburg, Germany), 1.3 mM NaN3 (Sigma-Aldrich, Taufkirchen, Germany), […] coelenterazine (p.j.k., Kleinblittersdorf, Germany) per well were added and measurements were performed using the Victor™ X Multilable Plate Reader as described above. Data were normalized the following way: i) firefly (FF) luciferase activity is related to the renilla (R) luciferase activity; and ii) the FF/R values of the individual samples are related to the FF/R value obtained by stimulation with the control medium and expressed as x-fold change compared to control. […]
# MEF E16 cells = test: immunocytochemical staining for DCX and Map2ab in MEF cultures (neuronal differentiation); assay type: cell-based, mouse; conditions: 7 days; for number of DCX positive cells / number of DCX/Map2ab double positive cells: Neurobasal plus 1% FCS, 10 μM; for number of DCX positive cells: FIG. 3A; for number of DCX/Map2ab double positive cells: FIG. 3B
# Protocol: Following the results from the Luciferase assay described in Example 17, the inventors examined the ability of compounds according to the invention and reference compounds to promote differentiation of MEF E16 cells, using immunocytochemical staining with DCX and Map2ab antibodies.
# Compound 1a at 10 and 100 μM was analyzed for its effect on the expression of the neuronal specific markers DCX and Map2ab using primary fetal mouse brain derived cells stimulated in DMEM-KO media.
# Mouse embryonic day 16 forebrain cells were prepared as described in Example 17. Before seeding the cells, glass-coverslips were coated and prepared. Glass-coverslips (13 mm) (Menzel GmbH, Braunschweig, Germany) were incubated in 1 M HCl at 65° C. overnight and stored in isopropanol until further use. Coverslips were put into 24-well test plates and air-dried. Subsequently coverslips were incubated for 1 h with 100 μg/ml Poly-L-ornithin solution at 37° C. After washing three times with sterile water coverslips were incubated with 5 μg/ml Laminin solution for 2 h. Immediately after removal of the Laminin solution cells were seeded (40.000 cells/well) in DMEM-KO plus supplement or in NB-B27 plus 1% FCS medium. One day later, cells had attached to the substrate. Cells were stimulated with the above-mentioned substances (in DMEM-KO plus supplement medium: 10 μM and 100 μM; in NB-B27 plus 1% FCS medium: 10 μM) for 3 or 7 days. In the 7 day group, medium including the substances was replaced after three days. Cultures were maintained at 37° C. in a humidified incubator with 5% CO2.
# Cells were fixed with phosphate-buffered 4% paraformaldehyde (Sigma-Aldrich, Taufkirchen, Germany). […] The specimens were incubated overnight at 4° C. with the primary antibodies at the following dilutions in FSGB: rabbit anti Doublecortin (DCX) 1:500 (NEB, Frankfurt, Germany) and mouse anti-Map 2a+2b 1:400 (Sigma-Aldrich, Taufkirchen, Germany). After washing three times with FSGB, cells were incubated with the species-specific secondary antibodies, which were conjugated to fluorochromes, for 2 hours in the dark at room temperature. To remove unbound secondary antibodies, cells were washed again with PBS. Nuclear counterstaining was performed with 4′,6′-diamidino-2-phenylindole dihydrochloride hydrate (DAPI) at […] (Sigma Aldrich, Taufkirchen, Germany). Finally, cells were washed again three times with PBS and mounted on microscope slides using Prolong Antifade reagent (Invitrogen, Oreg., USA).
# The immunostainings were examined using Olympus IX81 inverted research microscope and the software Volocity 5.3.1. To quantify the number of cells, five indiscriminately chosen visual fields per coverslip were selected under a focus of 40 times. The total number of cells (DAPI positive cells), the number of DCX positive, Map2ab positive, and DCX/Map2ab double positive cells was determined.
smiles,measurement,setting,value
"COc1cc2c(c(O)c1C(=O)/C=C/c1ccc(O)cc1)C=CC(C)(C)O2 [Compound 1a, (E)-1-(5-hydroxy-7-methoxy-2,2-dimethyl-2H-chromen-6-yl)-3-(4-hydroxyphenyl)prop-2-en-1-one]",normalized renilla activity (approximate measure of cell survival / relative cytotoxicity),[1],significantly higher than that exerted by the reference compounds xanthohumol and osajin
same,expression of the neuronal specific markers DCX and Map2ab (percentage of positive cells),"MEF E16 cells; DMEM-KO medium, 10 and 100 μM, FIG. 2",elevated number of DCX positive and of MAP2ab positive cells; also recorded: enhances the expression of the neuronal specific markers DCX and Map2ab
same,number of DCX positive cells,MEF E16 cells,most vigorous effect
same,number of DCX/Map2ab double positive cells,MEF E16 cells,highest number of DCX and Map2ab double positive cells
"COc1cc2c(c(O)c1C(=O)/C=C/c1ccc(O)cc1)CCC(C)(C)O2 [Compound 1b, (E)-1-(5-hydroxy-7-methoxy-2,2-dimethylchroman-6-yl)-3-(4-hydroxyphenyl)prop-2-en-1-one]",normalized renilla activity (approximate measure of cell survival / relative cytotoxicity),[1],significantly higher than that exerted by the reference compounds xanthohumol and osajin
same,number of DCX positive cells,MEF E16 cells,strongly enhanced the number of DCX positive cells
same,number of DCX/Map2ab double positive cells,MEF E16 cells,highest number of DCX and Map2ab double positive cells
